Experimental findings from PubChem BioAssay (NCI) are described below.

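Growth conditions: 96-well plates. Treatment: test compound, 48 hours, 5 concentrations. Analysis: linear interpolation between bracketing concentrations; unreached endpoints set to highest concentration. TGI is the concentration that stops growth completely.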

Some test systems named below: CCRF-CEM leukemia; SN12C renal; SK-MEL-28 melanoma; UO-31 renal; HOP-62 NSCLC; HCC-2998 colon; SF-268 CNS; SK-MEL-5 melanoma; RPMI-8226 leukemia; KM12 colon; K-562 leukemia.
Assay in all cases: NCI-60 cell line screen, 48 h

For the compound `O=c1[nH]c(=O)n(C2CC(O)C(COP(=O)(OCC(Cl)(Cl)Cl)OCC(Cl)(Cl)Cl)O2)cc1F` (stereo not given), the TGI was more than 100 µM in the assay on CCRF-CEM leukemia; more than 100 µM in the assay with SN12C renal; more than 100 µM in the assay on SK-MEL-28 melanoma; more than 100 µM with UO-31 renal; 1.53 µM in the assay on HOP-62 NSCLC; 1.62 µM with HCC-2998 colon. In addition, the TGI in the assay on SF-268 CNS, in the assay with SK-MEL-5 melanoma, with RPMI-8226 leukemia, with KM12 colon and with K-562 leukemia was more than 100 µM each time.
`COc1cc2cnc3c4cc(OC)c(OC(C)C)cc4ccc3c2cc1OC`: the TGI in the assay on CCRF-CEM leukemia, in the assay on SN12C renal, with SK-MEL-28 melanoma, in the assay with UO-31 renal, in the assay on HOP-62 NSCLC and in the assay with HCC-2998 colon was more than 100 µM each time. Moreover, the TGI with SF-268 CNS, in the assay on SK-MEL-5 melanoma, in the assay with RPMI-8226 leukemia, with KM12 colon and in the assay with K-562 leukemia was more than 100 µM each time.
For `COC(=O)/C(=N\N)C(C(=O)C(=O)Nc1nc(=S)[nH][nH]1)c1nc2ccc([N+](=O)[O-])cc2[nH]c1=O` (stereo not given), the TGI with CCRF-CEM leukemia, in the assay with SN12C renal, in the assay with SK-MEL-28 melanoma, in the assay with UO-31 renal, with HOP-62 NSCLC and in the assay on HCC-2998 colon was more than 100 µM throughout. The TGI with SF-268 CNS, in the assay on SK-MEL-5 melanoma, in the assay with RPMI-8226 leukemia, in the assay with KM12 colon and in the assay on K-562 leukemia was more than 100 µM in each case.
In the case of `C[C@]12CC[C@H](O)CC1=CC[C@@H]1[C@@H]2CC[C@]2(C)NC(=O)/C(=C\c3ccccc3)C[C@@H]12`, the TGI amounted to 48.5 µM in the assay on CCRF-CEM leukemia; 66 µM in the assay with SN12C renal; 32 µM with SK-MEL-28 melanoma; 25.8 µM with UO-31 renal; 29 µM in the assay on HOP-62 NSCLC; 30.7 µM in the assay with HCC-2998 colon. Moreover, the TGI is 30.7 µM in the assay with SF-268 CNS; 25.7 µM in the assay with SK-MEL-5 melanoma; 56 µM with RPMI-8226 leukemia; 30.3 µM in the assay on KM12 colon; more than 100 µM in the assay with K-562 leukemia.
Regarding `CCc1cccc(NC(=O)c2cc(/C=C/c3ccccc3)[nH]c(=S)n2)c1`, the TGI in the assay with CCRF-CEM leukemia, with SN12C renal, with SK-MEL-28 melanoma, in the assay on UO-31 renal, in the assay with HOP-62 NSCLC and with HCC-2998 colon was more than 100 µM in each case. Moreover, the TGI in the assay with SF-268 CNS, in the assay with SK-MEL-5 melanoma, with RPMI-8226 leukemia, with KM12 colon and in the assay on K-562 leukemia was more than 100 µM each time.
